Values joined by “and” are separate entries in the source; they are usually repeats but may differ in a detail not shown here. Equal entries are not always repeated. *1 amine or outer side, *2 acyl side, *3 side chain or, on linkers, in order; H or OH if unused. Side-chain parts run from the residue outwards. [ ]: non-standard residue; d: D form. The star is where a group is joined. C20 diacid = O=C(O)CCCCCCCCCCCCCCCCCCC(=O)*; γGlu = O=C(O)[C@H](CCC(=O)[*:2])N[*:1]; εLys = N[C@@H](CCCCN[*:1])C(=O)[*:2]; pGlu = O=C1CC[C@@H](C(=O)O)N1; αMeL = CC(C)C[C@](C)(N)C(=O)O; AEEA = NCCOCCOCC(=O)O; Aib = CC(C)(N)C(=O)O
Assays:
[1] = tested on: MHC-II presented peptides on human dendritic cells; experiment: MAPPS assay (MHC-Associated Peptide Proteomics); type: cell-based
In short: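 Peptides eluted from anti-MHC-II immunoprecipitates of day-6 DC lysates were sequenced by MS, mapped onto the parent test molecule, and scored as percentage of donors presenting each region. DCs derived from donor CD14+ cells (IL-4, GM-CSF) received test molecules on day 4, then LPS maturation on day 5.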

[2] = Pharmacokinetics in Sprague Dawley rats, single subcutaneous or intravenous dose (incl. 10, 30, 100 nmol/kg dose response); type: in vivo
CD4+ T cells = experiment: T cell proliferation assay; type: cell-based, human; conditions: responding donors / donors tested
Method: This assay assessed the ability of tested antibodies or tested MAPPS peptides to activate CD4+ T cells by inducing cellular proliferation. CD8+ T cell depleted PBMC's were prepared and labeled with CFSE. Each sample was tested with media control, keyhole limpet haemocyanin (KLH; positive clinical benchmark control), tested antibodies, or tested MAPPS peptides. Cultures were incubated for 7 days. On day 7, samples were analyzed by flow cytometry.

[3] = Pharmacokinetics in Yucatan mini-pigs, single subcutaneous or intravenous dose; type: in vivo
In short: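 Male mini-pigs received one SC or IV dose (19 or 99 nmol/kg) in 40 mM Tris-HCl 5% D-mannitol, pH 8. Blood sampled 0.083 (IV only) to 504 h postdose. Plasma levels measured by LC/MS after extraction and SPE, Orbitrap detection.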

[4] = dose response, single subcutaneous dose 10 nmol/kg, male Sprague Dawley rats, individual animal
[5] = dose response, single subcutaneous dose 30 nmol/kg, male Sprague Dawley rats, individual animal
[6] = dose response, single subcutaneous dose 100 nmol/kg, male Sprague Dawley rats, individual animal
[7] = male Sprague Dawley rats, single intravenous dose 183 nmol/kg, individual animal
[8] = male, Sprague Dawley, rat, plasma, iv, 183 nmol/kg, single intravenous dose 183 nmol/kg, Mean
[9] = male, Sprague Dawley, rat, plasma, iv, 183 nmol/kg, single intravenous dose 183 nmol/kg, individual animal
[10] = single subcutaneous dose 183 nmol/kg, male Sprague Dawley rats, individual animal
[11] = male Yucatan pigs, single subcutaneous dose 18 nmol/kg, individual animal
[12] = male, Yucatan mini-pig, minipig, plasma, iv, 18 nmol/kg, single intravenous dose 18 nmol/kg, individual animal
[13] = male, Yucatan mini-pig, minipig, plasma, iv, 18 nmol/kg, single intravenous dose 18 nmol/kg, mean
[14] = single intravenous dose 18 nmol/kg, male Yucatan pigs, individual animal

With “[pGlu]GSPSGIVTS[αMeL]DVPT[Aib][αMeL]LQKILEQERAEKARQQAK([γGlu-AEEA-εLys-C20 diacid])EAAEILAQV-NH2 [SEQ ID NO: 22, Pyr-GSPSGIVTS αMeL DVPT Aib αMeL LQKILEQERAEKARQQAK(γE-(2-[2-(2-Amino-ethoxy)-ethoxy]-acetyl)-ϵK-CO-(CH2)18-CO2H)EAAEILAQV-NH2]” the “MAPPS Assay >10 donors with diverse MHC” value ([1]; donors displaying MHC-II peptides / donors tested) was 1/10, the “peptides displayed on MHC-II complexes” value ([1]; human dendritic cells from normal donors) was “at least one peptide cluster on MHC-II complexes in a subset of donors” and the “immunogenicity compared with SEQ ID NO:54” value ([1]; in the MAPPs assay and/or the T cell proliferation assay) was “substantial improvements in immunogenicity over a compound comprising SEQ ID NO:54”. The “MAPPS Assay >10 donors with diverse MHC” value ([1]; percentage of donors displaying MHC-II peptides) was 10%, the AUC0-inf [2, 4] was 2.73 µM·h and 2.81 µM·h and 3.02 µM·h and the CL/F [2, 4] was 3.60 mL/h/kg and 3.54 mL/h/kg. For the same substance, the Cmax [2, 4] was 49.5 nM and 51.3 nM and 48.6 nM, the T1/2 [2, 4] was 23.1 h and 41.5 h and the AUC0-inf [2, 5] was 7.52 µM·h and 8.6 µM·h and 7.16 µM·h. For the same substance, the CL/F [2, 5] was 3.62 mL/h/kg and 4.25 mL/h/kg, the Cmax [2, 5] was 126 nM and 132 nM and 128 nM and the T1/2 [2, 5] was 33.6 h and 24.1 h. For the same substance, the AUC0-inf [2, 6] was 26.7 µM·h and 26 µM·h and 26.3 µM·h, the CL/F [2, 6] was 3.91 mL/h/kg and the Cmax [2, 6] was 372 nM and 416 nM and 369 nM. The T1/2 [2, 6] was 25.9 h and 30.7 h, the “AUC0-inf” value [2, 7] was 88.4 µM·h and 79.6 µM·h and 92.3 µM·h and the “C0” value [2, 7] was 3240 nM and 5390 nM and 5200 nM. The “CL” value [2, 7] was 2.30 mL/h/kg and 1.98 mL/h/kg, the “T1/2” value [2, 7] was 21.3 h and 22.9 h and the clearance [2, 8] was 2.12 mL/h/kg. It also gave a half-life [2, 8] of 23 h, a clearance [2, 9] of 2.07 mL/h/kg and a half-life [2, 9] of 24.7 h. It also gave a half-life ([2]; male, Sprague Dawley, rat, plasma, sc, 10 nmol/kg, dose response, single subcutaneous dose 10 nmol/kg, individual animal) of 30.4 h, a CL/F ([2]; male, Sprague Dawley, rat, plasma, sc, 10 nmol/kg, dose response, single subcutaneous dose 10 nmol/kg, individual animal, read-out: CL/F (converted)) of 3.75 mL/h/kg and a Tmax ([2]; male, Sprague Dawley, rat, plasma, sc, 10 nmol/kg, dose response, single subcutaneous dose 10 nmol/kg, individual animal, read-out: Tmax) of 24 h. It also gave a half-life ([2]; male, Sprague Dawley, rat, plasma, sc, 10 nmol/kg, dose response, single subcutaneous dose 10 nmol/kg, mean) of 31.7 h, a CL/F ([2]; male, Sprague Dawley, rat, plasma, sc, 10 nmol/kg, dose response, single subcutaneous dose 10 nmol/kg, mean, read-out: CL/F (converted)) of 3.63 mL/h/kg and a Tmax ([2]; male, Sprague Dawley, rat, plasma, sc, 10 nmol/kg, dose response, single subcutaneous dose 10 nmol/kg, mean, read-out: Tmax) of 24 h. It also gave a half-life ([2]; male, Sprague Dawley, rat, plasma, sc, 30 nmol/kg, dose response, single subcutaneous dose 30 nmol/kg, individual animal) of 27.4 h, a CL/F ([2]; male, Sprague Dawley, rat, plasma, sc, 30 nmol/kg, dose response, single subcutaneous dose 30 nmol/kg, individual animal, read-out: CL/F (converted)) of 4.07 mL/h/kg and a Tmax ([2]; male, Sprague Dawley, rat, plasma, sc, 30 nmol/kg, dose response, single subcutaneous dose 30 nmol/kg, individual animal, read-out: Tmax) of 24 h. For the same substance, the half-life ([2]; male, Sprague Dawley, rat, plasma, sc, 30 nmol/kg, dose response, single subcutaneous dose 30 nmol/kg, mean) was 28.4 h, the CL/F ([2]; male, Sprague Dawley, rat, plasma, sc, 30 nmol/kg, dose response, single subcutaneous dose 30 nmol/kg, mean, read-out: CL/F (converted)) was 3.98 mL/h/kg and the Tmax ([2]; male, Sprague Dawley, rat, plasma, sc, 30 nmol/kg, dose response, single subcutaneous dose 30 nmol/kg, mean, read-out: Tmax) was 24 h. It also gave a half-life ([2]; male, Sprague Dawley, rat, plasma, sc, 100 nmol/kg, dose response, single subcutaneous dose 100 nmol/kg, individual animal) of 28.6 h, a CL/F ([2]; male, Sprague Dawley, rat, plasma, sc, 100 nmol/kg, dose response, single subcutaneous dose 100 nmol/kg, individual animal, read-out: CL/F (converted)) of 3.85 mL/h/kg and a Tmax ([2]; male, Sprague Dawley, rat, plasma, sc, 100 nmol/kg, dose response, single subcutaneous dose 100 nmol/kg, individual animal, read-out: Tmax) of 24 h. It also gave a half-life ([2]; male, Sprague Dawley, rat, plasma, sc, 100 nmol/kg, dose response, single subcutaneous dose 100 nmol/kg, mean) of 28.4 h, a CL/F ([2]; male, Sprague Dawley, rat, plasma, sc, 100 nmol/kg, dose response, single subcutaneous dose 100 nmol/kg, mean, read-out: CL/F (converted)) of 3.89 mL/h/kg and a Tmax ([2]; male, Sprague Dawley, rat, plasma, sc, 100 nmol/kg, dose response, single subcutaneous dose 100 nmol/kg, mean, read-out: Tmax) of 24 h. The half-life ([2]; male, Sprague Dawley, rat, plasma, sc, 183 nmol/kg, single subcutaneous dose 183 nmol/kg, individual animal) was 26.2 h, the CL/F ([2]; male, Sprague Dawley, rat, plasma, sc, 183 nmol/kg, single subcutaneous dose 183 nmol/kg, individual animal, read-out: CL/F (converted)) was 4.75 mL/h/kg and the Tmax ([2]; male, Sprague Dawley, rat, plasma, sc, 183 nmol/kg, single subcutaneous dose 183 nmol/kg, individual animal, read-out: Tmax) was 24 h. The half-life ([2]; male, Sprague Dawley, rat, plasma, sc, 183 nmol/kg, single subcutaneous dose 183 nmol/kg, mean) was 23.8 h, the CL/F ([2]; male, Sprague Dawley, rat, plasma, sc, 183 nmol/kg, single subcutaneous dose 183 nmol/kg, mean, read-out: CL/F (converted)) was 5.04 mL/h/kg and the Tmax ([2]; male, Sprague Dawley, rat, plasma, sc, 183 nmol/kg, single subcutaneous dose 183 nmol/kg, mean, read-out: Tmax) was 32 h. It also gave an AUC0-inf ([2]; rat, plasma, sc, dose response, single subcutaneous dose 10 nmol/kg, male Sprague Dawley rats, mean, read-out: AUC0-inf) of 2.85 µM·h, a Cmax ([2]; rat, plasma, sc, dose response, single subcutaneous dose 10 nmol/kg, male Sprague Dawley rats, mean, read-out: Cmax) of 49.8 nM and an AUC0-inf ([2]; rat, plasma, sc, dose response, single subcutaneous dose 30 nmol/kg, male Sprague Dawley rats, mean, read-out: AUC0-inf) of 7.76 µM·h. For the same substance, the Cmax ([2]; rat, plasma, sc, dose response, single subcutaneous dose 30 nmol/kg, male Sprague Dawley rats, mean, read-out: Cmax) was 129 nM, the AUC0-inf ([2]; rat, plasma, sc, dose response, single subcutaneous dose 100 nmol/kg, male Sprague Dawley rats, mean, read-out: AUC0-inf) was 26.3 µM·h and the Cmax ([2]; rat, plasma, sc, dose response, single subcutaneous dose 100 nmol/kg, male Sprague Dawley rats, mean, read-out: Cmax) was 386 nM. The AUC0-inf ([2]; rat, plasma, sc, single subcutaneous dose 183 nmol/kg, male Sprague Dawley rats, mean, read-out: AUC0-inf) was 36.8 µM·h, the Cmax ([2]; rat, plasma, sc, single subcutaneous dose 183 nmol/kg, male Sprague Dawley rats, mean, read-out: Cmax) was 583 nM and the AUC0-inf ([2]; rat, plasma, male Sprague Dawley rats, single intravenous dose 183 nmol/kg, Mean, read-out: AUC0-inf) was 86.8 µM·h. The C0 ([2]; rat, plasma, male Sprague Dawley rats, single intravenous dose 183 nmol/kg, Mean, read-out: C0) was 4610 nM, the AUC0-inf [2, 10] was 38.9 µM·h and 34.3 µM·h and 37.1 µM·h and the CL/F [2, 10] was 5.39 mL/h/kg and 4.99 mL/h/kg. For the same substance, the Cmax [2, 10] was 783 nM and 439 nM and 527 nM, the T1/2 [2, 10] was 21.8 h and 23.5 h and the Tmax [2, 10] was 48 h. For the same substance, the “T Cell Proliferation Assay: protein 7-10 donors with diverse MHC” value (CD4+ T cells) was 0/9, the AUC0-inf ([3]; Yucatan mini-pig, minipig, plasma, sc, male Yucatan pigs, single subcutaneous dose 18 nmol/kg, Mean, read-out: AUC0-inf) was 22.5 µM·h and the Cmax ([3]; Yucatan mini-pig, minipig, plasma, sc, male Yucatan pigs, single subcutaneous dose 18 nmol/kg, Mean, read-out: Cmax) was 154 nM. The “AUC0-inf” value [3, 11] was 23.9 µM·h and 21 µM·h, the “CL/F” value [3, 11] was 0.886 mL/h/kg and the “Cmax” value [3, 11] was 165 nM and 143 nM. The “T1/2” value [3, 11] was 85.8 h, the “Tmax” value [3, 11] was 6.0 h and the clearance [3, 12] was 0.82 mL/h/kg. For the same substance, the half-life [3, 12] was 90.1 h, the clearance [3, 13] was 0.733 mL/h/kg and the half-life [3, 13] was 95.6 h. For the same substance, the half-life ([3]; male, Yucatan mini-pig, minipig, plasma, sc, 18 nmol/kg, single subcutaneous dose 18 nmol/kg, Mean) was 82.5 h, the CL/F ([3]; male, Yucatan mini-pig, minipig, plasma, sc, 18 nmol/kg, single subcutaneous dose 18 nmol/kg, Mean, read-out: CL/F (converted)) was 0.832 mL/h/kg and the Tmax ([3]; male, Yucatan mini-pig, minipig, plasma, sc, 18 nmol/kg, single subcutaneous dose 18 nmol/kg, Mean, read-out: Tmax) was 15 h. It also gave a half-life ([3]; male, Yucatan mini-pig, minipig, plasma, sc, 18 nmol/kg, single subcutaneous dose 18 nmol/kg, individual animal) of 79.1 h, a CL/F ([3]; male, Yucatan mini-pig, minipig, plasma, sc, 18 nmol/kg, single subcutaneous dose 18 nmol/kg, individual animal, read-out: CL/F (converted)) of 0.777 mL/h/kg and an AUC0-inf ([3]; minipig, plasma, single intravenous dose 18 nmol/kg, male Yucatan pigs, mean, read-out: AUC0-inf) of 25.3 µM·h. For the same substance, the C0 ([3]; minipig, plasma, single intravenous dose 18 nmol/kg, male Yucatan pigs, mean, read-out: C0) was 418 nM, the AUC0-inf [3, 14] was 22.3 µM·h and 28.3 µM·h and the C0 [3, 14] was 373 nM and 462 nM. For the same substance, the CL [3, 14] was 0.646 mL/h/kg and the T1/2 [3, 14] was 101 h.

Source: patent US20250163119A1, “COMPOUNDS FOR THE TREATMENT OF DIABETES OR OBESITY” (Eli Lilly and Company, priority 2023, published 2025)
